These results are taken from patent publication US20250042905A1, “DIHYDROPYRROLO[3,4-C]PYRAZOLE DERIVATIVES AND THEIR USE IN DIAGNOSIS” (AC IMMUNE SA, priority 2021, published 2025).

The target of this test is T1, PD brain-derived alpha-synuclein aggregates (Homo sapiens, UniProt P37840).
T1 construct: PD brain-derived alpha-synuclein aggregates were spotted onto microarray slides; from tissue; host or cells: human Parkinson's disease patient brain
As to the kind of experiment: Micro-radiobinding competition assay for the determination of binding affinity. Conditions: for inhibition at 0.1 µM: read-out: Competition at 100 nM (%); for inhibition at 1 µM: read-out: Competition at 1 μM (%); for Ki: concentration range 0.05 nM to 2 μM, nonlinear regression, one site specific binding model. As for the experimental part:
Micro-Radiobinding Competition Assay for the Determination of Binding Affinity
PD brain-derived alpha-synuclein aggregates were spotted onto microarray slides. The slides were incubated with tritiated reference alpha-synuclein ligand at 20 nM or 30 nM and the example compounds (non-radiolabelled) at 1 μM and 100 nM. In some cases, the non-radiolabelled example compounds were further assessed for a range of different concentrations, varying from 0.05 nM to 2 μM. After incubation, slides were washed and scanned by a real-time autoradiography system (BeaQuant, ai4R). Quantification of the signal was performed by using the Beamage image analysis software (ai4R). Non-specific signal was determined with an excess of non-radiolabelled reference alpha-synuclein ligand (2 μM) and specific binding was calculated by subtracting the non-specific signal from the total signal. Competition was calculated as percent, where 0% was defined as the specific binding in the presence of vehicle and 100% as the values obtained in the presence of excess of the non-radiolabelled reference alpha-synuclein ligand. Ki values were calculated in GraphPad Prism7 by applying a nonlinear regression curve fit using a one site, specific binding model. All measurements were performed with at least two technical replicates.
Table 4: Assessment of binding affinity by micro-radiobinding competition assay on human PD brain-derived alpha-synuclein aggregates.

Where [1] appears, read: non-radiolabelled example compound at 100 nM, competition with tritiated reference alpha-synuclein ligand (20 nM or 30 nM), 100% = excess non-radiolabelled reference ligand.
[2] abbreviates: non-radiolabelled example compound at 1 μM, competition with tritiated reference alpha-synuclein ligand (20 nM or 30 nM), 100% = excess non-radiolabelled reference ligand.

Like-named read-outs stand apart in the source and are kept apart here.

On to `O=C1c2cn(-c3ccc(N4CC[C@@H](F)C4)nn3)nc2CN1c1ccns1` [Example 31, (R)-2-(6-(3-fluoropyrrolidin-1-yl)pyridazin-3-yl)-5-(isothiazol-5-yl)-5,6-dihydropyrrolo[3,4-c]pyrazol-4(2H)-one], for which the inhibition at 0.1 µM under setting [1] came out at 71%. For the same molecule, under setting [2], the inhibition at 1 µM was found to be 86%.
The molecule `O=C1c2cn(-c3ccc(N4CC[C@@H](F)C4)nn3)nc2CN1c1cccnc1` [Example 20, (R)-2-(6-(3-fluoropyrrolidin-1-yl)pyridazin-3-yl)-5-(pyridin-3-yl)-5,6-dihydropyrrolo[3,4-c]pyrazol-4(2H)-one] showed a Ki of 422 nM. In addition, the inhibition at 0.1 µM under setting [1] was determined as 38%. Moreover, under setting [2], the inhibition at 1 µM was determined as 74%.
Regarding `O=C1c2cn(-c3ccc(N4CCCCC(F)C4)nn3)nc2CN1c1cccnc1` (centres unmarked) [Example 33, 2-(6-(3-fluoroazepan-1-yl)pyridazin-3-yl)-5-(pyridin-3-yl)-5,6-dihydropyrrolo[3,4-c]pyrazol-4(2H)-one], under setting [1], the inhibition at 0.1 µM was found to be 6%. Moreover, the inhibition at 1 µM under setting [2] was found to be 35%.
For `Cc1ccc(N2Cc3nn(-c4cnc(N5CC(F)C5)cn4)cc3C2=O)cn1` [Example 19, 2-(5-(3-fluoroazetidin-1-yl)pyrazin-2-yl)-5-(6-methylpyridin-3-yl)-5,6-dihydropyrrolo[3,4-c]pyrazol-4(2H)-one], the inhibition at 0.1 µM under setting [1] was 44%. The inhibition at 1 µM under setting [2] worked out at 74%.
On the same counts, the results for `COc1cncc(N2Cc3nn(-c4ccc(N5CC[C@H](F)C5)nn4)cc3C2=O)c1` [Example 27, (S)-2-(6-(3-fluoropyrrolidin-1-yl)pyridazin-3-yl)-5-(5-methoxypyridin-3-yl)-5,6-dihydropyrrolo[3,4-c]pyrazol-4(2H)-one] are 50% and 57%.
Regarding `O=C1c2cn(-c3ccc(N4CC[C@@H](F)C4)nn3)nc2CN1c1cncs1` [Example 22, (R)-2-(6-(3-fluoropyrrolidin-1-yl)pyridazin-3-yl)-5-(thiazol-5-yl)-5,6-dihydropyrrolo[3,4-c]pyrazol-4(2H)-one], under setting [1], the inhibition at 0.1 µM was determined as 30%.
Take `O=C1c2cn(-c3cnc(N4CCCCC(F)C4)cn3)nc2CN1c1cccnc1` (centres unmarked) [Example 5, 2-(5-(3-fluoroazepan-1-yl)pyrazin-2-yl)-5-(pyridin-3-yl)-5,6-dihydropyrrolo[3,4-c]pyrazol-4(2H)-one]: the inhibition at 0.1 µM under setting [1] was 39%. Further, under setting [2], the inhibition at 1 µM was determined as 68%.
Turning to `COc1cncc(N2Cc3nn(-c4cnc(N5CC(F)C5)cn4)cc3C2=O)c1` [Example 11, 2-(5-(3-fluoroazetidin-1-yl)pyrazin-2-yl)-5-(5-methoxypyridin-3-yl)-5,6-dihydropyrrolo[3,4-c]pyrazol-4(2H)-one], the inhibition at 0.1 µM worked out at 41% and the inhibition at 1 µM was determined as 69%.
In the case of `O=C1c2cn(-c3ccc(N4CC[C@H](F)C4)nn3)nc2CN1c1cccnc1` [Example 24, (S)-2-(6-(3-fluoropyrrolidin-1-yl)pyridazin-3-yl)-5-(pyridin-3-yl)-5,6-dihydropyrrolo[3,4-c]pyrazol-4(2H)-one], the affinity corresponds to a Ki of 236 nM. Also, under setting [1], the inhibition at 0.1 µM came out at 30%. Moreover, the inhibition at 1 µM under setting [2] is 77%.
`Cl.O=C1c2cn(-c3cnc(N4CC[C@@H](F)C4)nc3)nc2CN1c1cccnc1` [Example 37, 2-2-[(3R)-3-fluoropyrrolidin-1-yl]pyrimidin-5-yl-5-(pyridin-3-yl)-2H,4H,5H,6H-pyrrolo[3,4-c]pyrazol-4-one hydrochloride] displayed a Ki of 356 nM. The “Competition at 100 nM (%)” value under setting [1] stood at 32%. Besides, the “Competition at 1 μM (%)” value under setting [2] is listed as 78%.
Turning to `O=C1c2cn(-c3ccc(N4CCCC(F)CC4)nn3)nc2CN1c1cccnc1` (centres unmarked) [Example 28, 2-(6-(4-fluoroazepan-1-yl)pyridazin-3-yl)-5-(pyridin-3-yl)-5,6-dihydropyrrolo[3,4-c]pyrazol-4(2H)-one], the inhibition at 0.1 µM under setting [1] was 17%. Moreover, the inhibition at 1 µM under setting [2] turned out to be 51%.
On the same counts, the results for `O=C1c2cn(-c3cnc(N4CC[C@@H](F)C4)cn3)nc2CN1c1cccnc1` [Example 1, (R)-2-(5-(3-fluoropyrrolidin-1-yl)pyrazin-2-yl)-5-(pyridin-3-yl)-5,6-dihydropyrrolo[3,4-c]pyrazol-4(2H)-one] are 89% and 95%.
Take `Cn1cc(N2Cc3nn(-c4ccc(N5CC[C@H](F)C5)nn4)cc3C2=O)cn1` [Example 26, (S)-2-(6-(3-fluoropyrrolidin-1-yl)pyridazin-3-yl)-5-(1-methyl-1H-pyrazol-4-yl)-5,6-dihydropyrrolo[3,4-c]pyrazol-4(2H)-one]: under setting [1], the inhibition at 0.1 µM is 8%. In addition, the inhibition at 1 µM under setting [2] was found to be 76%.
For the molecule `Cc1ccc(N2Cc3nn(-c4cnc(N5CC[C@H](F)C5)cn4)cc3C2=O)cn1` [Example 18, (S)-2-(5-(3-fluoropyrrolidin-1-yl)pyrazin-2-yl)-5-(6-methylpyridin-3-yl)-5,6-dihydropyrrolo[3,4-c]pyrazol-4(2H)-one], the inhibition at 0.1 µM under setting [1] is 38%. The inhibition at 1 µM under setting [2] was determined as 82%.
Molecule `Cn1cc(N2Cc3nn(-c4cnc(N5CCCCC(F)C5)cn4)cc3C2=O)cn1` (centres unmarked) [Example 8, 2-(5-(3-fluoroazepan-1-yl)pyrazin-2-yl)-5-(1-methyl-1H-pyrazol-4-yl)-5,6-dihydropyrrolo[3,4-c]pyrazol-4(2H)-one] registered a Ki of 33 nM. For the same molecule, the inhibition at 0.1 µM under setting [1] was 45%. Also, the inhibition at 1 µM under setting [2] was 78%.
With `O=C1c2cn(-c3cnc(N4CC[C@H](F)C4)cn3)nc2CN1c1cncs1` [Example 12, (S)-2-(5-(3-fluoropyrrolidin-1-yl)pyrazin-2-yl)-5-(thiazol-5-yl)-5,6-dihydropyrrolo[3,4-c]pyrazol-4(2H)-one], the inhibition at 0.1 µM came to 50%.
Take `O=C1c2cn(-c3cnc(N4CC[C@@H](F)C4)cn3)nc2CN1c1cncs1` [Example 9, (R)-2-(5-(3-fluoropyrrolidin-1-yl)pyrazin-2-yl)-5-(thiazol-5-yl)-5,6-dihydropyrrolo[3,4-c]pyrazol-4(2H)-one]: affinity was put at a Ki of 10 nM and the inhibition at 0.1 µM turned out to be 106%.
For `O=C1c2cn(-c3ccc(C(F)(F)F)nn3)nc2CN1c1cccnc1` [Example 35, 5-(pyridin-3-yl)-2-(6-(trifluoromethyl)pyridazin-3-yl)-5,6-dihydropyrrolo[3,4-c]pyrazol-4(2H)-one], under setting [1], the inhibition at 0.1 µM was 29%. Further, the inhibition at 1 µM under setting [2] was found to be 34%.
Turning to `O=C1c2cn(-c3ccc(N4CC[C@H](F)C4)nn3)nc2CN1c1ccns1` [Example 32, (S)-2-(6-(3-fluoropyrrolidin-1-yl)pyridazin-3-yl)-5-(isothiazol-5-yl)-5,6-dihydropyrrolo[3,4-c]pyrazol-4(2H)-one], under setting [1], the inhibition at 0.1 µM turned out to be 61%. The inhibition at 1 µM under setting [2] is 77%.
As for `O=C1c2cn(-c3cnc(N4CC[C@H](F)C4)nc3)nc2CN1c1cccnc1` [Example 36, 2-2-[(3S)-3-fluoropyrrolidin-1-yl]pyrimidin-5-yl-5-(pyridin-3-yl)-2H,4H,5H,6H-pyrrolo[3,4-c]pyrazol-4-one], the “Competition at 100 nM (%)” value under setting [1] was 37%. Also, the “Competition at 1 μM (%)” value under setting [2] was determined as 64%.
Take `COc1cncc(N2Cc3nn(-c4cnc(N5CC[C@@H](F)C5)cn4)cc3C2=O)c1` [Example 7, (R)-2-(5-(3-fluoropyrrolidin-1-yl)pyrazin-2-yl)-5-(5-methoxypyridin-3-yl)-5,6-dihydropyrrolo[3,4-c]pyrazol-4(2H)-one]: the inhibition at 0.1 µM worked out at 48% and the inhibition at 1 µM was 69%.

As usually defined, the Ki is a dissociation constant, usually derived from enzyme kinetics or from competition with a known ligand. High values mean a looser hold on the target, low ones a stronger hold on the target.
